# From PubChem BioAssay (NCI)
#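 A five-concentration, 48-hour dose response in 96-well plates underlies each endpoint, interpolated linearly between surrounding concentrations. GI50 is the concentration that inhibits growth by half. TGI is the concentration that stops growth completely.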 Where a SMILES comes first, the peptide text is derived from it. Bridges are numbered along the chain shown (N, C = ends). Roman numbers before positions name the chains, in order. [ ]: non-standard residue; d: D form. The star is where a group is joined. Heptadecanoyl = CCCCCCCCCCCCCCCCC(=O)*; Phg = N[CH](C(=O)O)c1ccccc1
# How the values were obtained:
# Assay in all cases: NCI-60 cell line screen, 48 h
# TK-10 renal = tested on: TK-10 renal
# SK-MEL-28 melanoma = tested on: SK-MEL-28 melanoma
# UACC-62 melanoma = tested on: UACC-62 melanoma
# ACHN renal = tested on: ACHN renal
# HCT-116 colon = tested on: HCT-116 colon
# SK-MEL-5 melanoma = tested on: SK-MEL-5 melanoma
# HCT-15 colon = tested on: HCT-15 colon
# SN12C renal = tested on: SN12C renal
# PC-3 prostate = tested on: PC-3 prostate
# DU-145 prostate = tested on: DU-145 prostate
SMILES,TGI (TK-10 renal) [µM],TGI (SK-MEL-28 melanoma) [µM],TGI (UACC-62 melanoma) [µM],TGI (ACHN renal) [µM],TGI (HCT-116 colon) [µM],TGI (SK-MEL-5 melanoma) [µM],TGI (HCT-15 colon) [µM],TGI (SN12C renal) [µM],TGI (PC-3 prostate) [µM],TGI (DU-145 prostate) [µM],GI50 (TK-10 renal) [µM],GI50 (SK-MEL-28 melanoma) [µM],GI50 (HCT-116 colon) [µM],GI50 (DU-145 prostate) [µM],GI50 (SK-MEL-5 melanoma) [µM],GI50 (SN12C renal) [µM]
COc1ccc(C2S/C(=C\c3cccc([N+](=O)[O-])c3)C(=O)N2NC(=O)Cc2ccccc2)cc1 (stereo not given),> 100,> 100,> 100,> 100,> 100,> 100,> 100,> 100,–,–,–,–,–,–,–,–
N=c1c2ccccc2nc2oc3ccc(Cl)cc3n12,34.9,> 100,> 100,28.4,69.3,> 100,> 100,61.5,> 100,–,–,–,–,–,–,–
Cc1c(C)c2ccc(O)cc2[nH]c1=O,–,> 100,> 100,> 100,> 100,> 100,> 100,> 100,> 100,> 100,–,–,–,–,–,–
CCCCCCCCCCCCCCCCC(=O)N1CCCC1C(=O)NCC(=O)NC(C(=O)N1CCCC1C(=O)NC(CO)C(=O)NC(Cc1ccc(O)cc1)C(=O)NC(CCCCNC(=O)C1CCCN1C(=O)C(CCCCN)NC(=O)C(CCCCN)NC(=O)C(CCCCN)NC(=O)C(CCCNC(=N)N)NC(=O)C(CCCCN)NC(=O)C(N)C(C)C)C(=O)NC(CC(C)C)C(=O)NC(CCCNC(=N)N)C(=O)N1CCCC1C(=O)NCC(N)=O)c1ccccc1 (stereo not given) (I: Heptadecanoyl-PG[Phg]PSYKLRPG-NH2 / II: H-VKRKKKP; amide I:7-II:C; configuration not given here),66.6,> 100,–,–,43.8,> 100,–,27.7,–,61.5,26.5,19.5,13,24.6,31.3,12
C=CCn1c(=S)sc2c(=O)[nH]cnc21,> 100,–,> 100,> 100,> 100,> 100,> 100,> 100,–,–,–,–,–,–,–,–
COc1ccc(-n2nnnc2C2(Nc3ccccc3)CCN(Cc3ccccc3)CC2)cc1,40.9,26.6,31.1,> 100,26.2,24.6,25.1,28,–,> 100,–,–,–,–,–,–
O=C1CCC2(c3ccc(F)cc3)Nc3ncncc3N12 (stereo not given),> 10,–,> 10,> 10,–,–,> 10,> 10,> 10,> 10,–,–,–,–,–,–
C/C(=C\c1ccc2c(c1)OCO2)[N+](=O)[O-],8.63,6.02,4.83,–,> 100,3.93,5.21,15.9,5.9,8.05,–,–,–,–,–,–
Cc1ccccc1Nc1cn(CCOc2ccccc2)c(=O)n(CCOc2ccccc2)c1=O,–,> 100,> 100,> 100,> 100,> 100,> 100,> 100,> 100,> 100,–,–,–,–,–,–
CCC(/C=C/c1ccccc1)=N\N=C(\C=C\c1ccccc1)CC,> 100,> 100,> 100,> 100,> 100,> 100,> 100,> 100,–,–,–,–,–,–,–,–
CC1(C)OC([C@H](O)CO)C([C@H]2NCCS2)O1 (stereo not given in full),> 100,> 100,> 100,> 100,> 100,> 100,> 100,–,> 100,> 100,–,–,–,–,–,–
Nc1nc(Cl)nc2c1ncn2C1CCC(CO)O1 (stereo not given),> 100,> 100,> 100,–,> 100,> 100,> 100,> 100,> 100,> 100,–,–,–,–,–,–
COc1cc(OC)nc(NC(=O)NS(=O)(=O)c2cccc3ncn(C)c(=O)c23)n1,> 100,–,> 100,> 100,> 100,> 100,> 100,> 100,–,> 100,–,–,–,–,–,–
CC(C)(Cc1ccccc1)Cc1cc(O)ccc1O,95.9,47.2,61.8,66.1,31.6,–,39.8,41.3,> 100,> 100,–,–,–,–,–,–
CCOC(=O)c1cc(Cl)ccc1OC(N)=O,–,> 100,> 100,–,> 100,> 100,> 100,> 100,–,–,–,–,–,–,–,–
CC(=O)OCC(OC(C)=O)C(OC(C)=O)C(OC(C)=O)C(/C=N\Nc1nc2ccccc2c(=O)[nH]1)OC(C)=O (stereo not given),–,> 100,> 100,> 100,> 100,> 100,> 100,> 100,> 100,> 100,–,–,–,–,–,–
N.N.N.N.O=S(=O)([O-])[O-].[Co+3].[OH3+].[OH3+],> 100,> 100,> 100,> 100,> 100,> 100,> 100,> 100,–,–,–,–,–,–,–,–
